Data on 6 compounds can be found in patent US20130261173A1, “CYCLODEXTRIN-BASED POLYMERS FOR THERAPEUTIC DELIVERY” (CERULEAN PHARMA INC., priority 2009, published 2013).

Data set [1] is described as follows: Tolerability in the murine melanoma model (body weight). In kind it is in vivo, male C57BL/6 mice.
Experimental: The treatments were administered IV into the tail vein at a dose volume of 10 mL/kg, beginning on post-implantation day 5, when the mean tumor volume was ca. 60 mm^3. Animals were monitored for any morbidity and adverse effect three times a week. In addition, body weight and tumor volume were also measured three times a week.
Tolerability was determined by changes in body weight, expressed as a percent of the initial body weight on post-implantation day 5. Health monitoring was conducted three times a week to evaluate lethargy, tremors, hypothermia, ataxia, hind limb paralysis etc. The criteria at which a mouse was removed from the study were >20% body weight loss or severe morbidity or hind limb paralysis.
The test system of data set [2] is B16.F10 cells. The experiment in a line: CellTiter-Glo Luminescent Cell Viability Assay (cytotoxicity). In kind it is cell-based, murine. On the procedure: To measure the cytotoxic effect of CDP-linker-docetaxel compounds, the CellTiter-Glo Luminescent Cell Viability Assay (CTG) was used. […] B16.F10 cells, grown to 85-90% confluency in 150 cm2 flasks (passage <30), were resuspended in media (MEM-alpha, 10% HI-FBS, 1×antibiotic-antimycotic solution) and added to 96-well opaque-clear bottom plates at a concentration of 1500 cells/well in 200 μL/well. The cells were incubated at 37° C. with 5% CO2 for 24 hours. The following day, serial dilutions of 2× concentrated particles and 2× concentrated free drug were made in 12-well reservoirs with media to specified concentrations. The media in the plates was replaced with […], of fresh media and 100 μL of the corresponding serially diluted drug. Three sets of plates were prepared with duplicate treatments. Following 24, 48 and 72 hours of incubation at 37° C. with 5% CO2, the media in the plates was replaced with 100 μL of fresh media and 100 μL of CTG solution, and then incubated for 5 minutes on a plate shaker at room temperature set to 450 rpm and allowed to rest for 15 minutes. Viable cells were measured by luminescence using a microtiter plate reader. The data was plotted as % viability vs. concentration and standardized to untreated cells.

Data set [3] has as its system B16.F10 cells. As to the kind of experiment: Efficacy in a murine melanoma model (subcutaneous B16.F10 tumors). In kind it is in vivo, male C57BL/6 mice. On the procedure: Animals were monitored for any morbidity and adverse effect three times a week.
Tumor volume was calculated with a (width×width×length)/2 mm^3 formula.

Where [4] appears, read: 15 mg/kg IV, weekly schedule for 3 injections.
The mark [5] stands for this setting: 30 mg/kg IV, weekly schedule for 3 injections (study of 1.4, 2.3, 4.2, 5.2).
[6] abbreviates: 15 mg/kg IV, three injections over 2 weeks (twice per week).
Where [7] appears, read: 30 mg/kg IV, biweekly schedule for 2 injections.
Setting [8] is: 30 mg/kg IV, weekly schedule for 3 injections (study of 1.5).
The mark [9] stands for this setting: 15 mg/kg IV, three injections over 2 weeks (twice per week), listed as free docetaxel.

“And” between values parts separate entries of the source, which are not always exact repeats. Equal entries are not always repeated. Where two headings read alike, the source gives them in different places.

For “CDP-dithiolethyloxy-carbonate-docetaxel [CDP-ethane-S—S-ethane-DTX formulation]”, the “Maximum body weight loss (%)” value in data set [1] (setting [4]) and in data set [1] (setting [5]) was 0% in each case. In addition, the IC50 with B16.F10 cells [2] came to 23 nM. Moreover, the “day the mean tumor volume endpoint (≧3000 mm^3) was reached” value with B16.F10 cells [3] (mouse, in vivo) was 21 days and 24 days.
“CDP-2′-hexanoate-docetaxel [CDP-Hex-DTX formulation]”: the IC50 with B16.F10 cells [2] lay within 325 to 440 nM. In addition, in the data set on B16.F10 cells [3] (mouse, in vivo), the “Tumor growth delay (TGD)” value stood at 10 days, the “Tumor growth inhibition (% TGI)” value worked out at 66% and the “increase in TGD” value was 53%.
On to “CDP-2′-alanine glycolate-docetaxel [CDP-Ala Gly-DTX formulation]”, for which the IC50 in the data set with B16.F10 cells [2] was 0.4 to 2 nM.
The compound “CDP-2′-glycine-docetaxel [CDP-Gly-DTX formulation]” yielded an IC50 with B16.F10 cells [2] (B16.F10 cells, 72 hours after treatment) of 1.2 to 3.7 nM.
With `CC(=O)O[C@@]12CO[C@@H]1C[C@H](O)[C@@]1(C)C(=O)[C@H](O)C3=C(C)[C@@H](OC(=O)[C@H](O)[C@@H](NC(=O)OC(C)(C)C)c4ccccc4)C[C@@](O)([C@@H](OC(=O)c4ccccc4)[C@H]21)C3(C)C` [Free docetaxel, docetaxel, reference compound], the “Maximum body weight loss (%)” value in data set [1] (setting [6]) worked out at 3%; in data set [1] (setting [4]) it was 0%; in data set [1] (setting [7]), 5%; in data set [1] (setting [5]), 8%; in data set [1] (setting [8]) it was 12%. Also, the IC50 in the data set with B16.F10 cells [2] (Mus musculus, B16.F10 cells, 72 hours after treatment) was in the range of 0.2 to 2 nM. Also, the “Tumor growth delay (TGD)” value in the data set on B16.F10 cells [3] (setting [6]) was 15 days; in the data set on B16.F10 cells [3] (setting [4]) it was 7 days; in the data set with B16.F10 cells [3] (setting [7]) it was 7 days; in the data set with B16.F10 cells [3] (setting [5]), 12 days; with B16.F10 cells [3] (setting [8]), 21 days. Besides, the “Tumor growth inhibition (% TGI)” value in the data set with B16.F10 cells [3] (setting [6]) was found to be 97%; in the data set with B16.F10 cells [3] (setting [9]), 97%; in the data set on B16.F10 cells [3] (setting [4]), 68%; in the data set on B16.F10 cells [3] (15 mg/kg IV, weekly schedule for 3 injections, listed as free docetaxel), 68%; in the data set on B16.F10 cells [3] (setting [7]), 73%; with B16.F10 cells [3] (30 mg/kg IV, biweekly schedule for 2 injections, listed as free docetaxel), 73%. For the same compound, the “increase in TGD” value worked out at 79% in the data set with B16.F10 cells [3] (setting [6]), 37% with B16.F10 cells [3] (setting [4]), 63% in the data set with B16.F10 cells [3] (setting [5]) and 105% with B16.F10 cells [3] (setting [8]). The “day the mean tumor volume endpoint (≧3000 mm^3) was reached” value in the data set with B16.F10 cells [3] (setting [9]) is 34 days and 35 days; in the data set with B16.F10 cells [3] (setting [4]) it was 26 days; with B16.F10 cells [3] (setting [7]), 26 days; in the data set with B16.F10 cells [3] (setting [5]), 31 days; with B16.F10 cells [3] (setting [8]), 41 days. The survival came out at 50% in the data set with B16.F10 cells [3] (15 mg/kg IV, three injections over 2 weeks, day 33); 0% in the data set on B16.F10 cells [3] (15 mg/kg IV, three injections over 2 weeks, day 40); 50% in the data set on B16.F10 cells [3] (30 mg/kg IV, biweekly for 2 injections, day 24); 0% with B16.F10 cells [3] (30 mg/kg IV, biweekly for 2 injections, day 31); 50% in the data set on B16.F10 cells [3] (30 mg/kg IV, weekly for 3 injections (study of 1.4, 2.3, 5.2), day 29); 0% in the data set with B16.F10 cells [3] (30 mg/kg IV, weekly for 3 injections (study of 1.4, 2.3, 5.2), day 38). For the same compound, the survival in the data set with B16.F10 cells [3] (30 mg/kg IV, weekly for 3 injections (study of 1.5), day 40) is 50%; in the data set with B16.F10 cells [3] (30 mg/kg IV, weekly for 3 injections (study of 1.5), day 45), 0%.
Regarding “CDP-2′-aminoethoxyethoxy-Docetaxel [CDP-aminoethoxyethoxy-DTX formulation]”, the “Maximum body weight loss (%)” value is listed as 7% in data set [1] (setting [4]) and 23% in data set [1] (setting [5]).
